Experimental data taken from patent US4761419A, “6-(((substituted)quinolinyl)ethyl)-and ethenyl)tetrahydro-4-hydroxypyran-2-one inhibitors of cholesterol biosynthesis” (Warner-Lambert Company, priority 1987, dated 1988).

System: cholesterol biosynthesis (sterol synthesis, rat liver homogenate)
Assay: CSI screen: incorporation of 14C-acetate into nonsaponifiable lipid by rat liver homogenate (inhibition of cholesterol biosynthesis)
Assay type: biochemical
Details: rat liver homogenate from cholestyramine-fed rats; inhibition of sterol synthesis over a one-hour period
Experimental: The ability of compounds of the present invention to inhibit the biosynthesis of cholesterol was measured by a method (designated CSI screen) which utilizes the procedure described by R. E. Dugan et al, Archiv. Biochem. Biophys., (1972), 152, 21-27. In this method, the level of HMG-CoA enzyme activity in standard laboratory rats is increased by feeding the rats a chow diet containing 5cholestyramine for four days, after which the rats are sacrificed.
The rat livers are homogenized, and the incorporation of 14C-acetate into nonsaponifiable lipid by the rat liver homogenate is measured. The micromolar concentration of compound required for 50inhibition of sterol synthesis over a one-hour period is measured, and expressed as an IC50 value.

| Compound | IC50 [nM] |
| --- | --- |
| CC(C)c1nc2ccc(Cl)cc2c(-c2ccc(F)cc2)c1/C=C/[C@@H]1C[C@@H](O)CC(=O)O1 (relative stereo) [[4α,6β(E)]6-[2-[6-Chloro-4-(4-fluorophenyl)-2-(1-methylethyl)-3-quinolinyl]ethenyl]tetrahydro-4-hydroxy-2H-pyran-2-one] | 32 |
| Cc1nc2ccc(Cl)cc2c(-c2ccc(F)cc2)c1/C=C/[C@@H]1C[C@@H](O)CC(=O)O1 (relative stereo) [CHCH, 4-Fluorophenyl, CH3, H, Cl, H, H, [4α,6β(E)]-6[-2-[6-Chloro-4-(4-fluorophenyl)-2-methyl-3-quinolinyl]ethenyl]-tetrahydro-4-hydroxy-2H-pyran-2-one] | 350 |
